# Assay results published in the supplement of paper PMC10307832.
# Legend:
# Assay in all cases: relative viability (nuclei count vs DMSO), 5 days (fraction); higher = more cells survive
# BGJ398 + Alpelisib = compound: CCN1CCN(c2ccc(Nc3cc(N(C)C(=O)Nc4c(Cl)c(OC)cc(OC)c4Cl)ncn3)cc2)CC1 [BGJ398] + Cc1nc(NC(=O)N2CCC[C@H]2C(N)=O)sc1-c1ccnc(C(C)(C)C(F)(F)F)c1 [Alpelisib] (partner 2 µM)
# How it was run: (§1)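 After 5 days of treatment, lung cancer cells in 1536-well plates were fixed and stained in a single step (final 0.05% Triton X-100, 1% formaldehyde, 1 ug/ml Hoechst) and their nuclei counted on 4× images. Treatment had been applied by pin tool the day after seeding as one drug alone or as a fixed anchor-drug dose with five library-drug doses (not always all listed) in √10 steps. Relative viability is the nuclei count of treated wells divided by that of vehicle wells, and values are medians of duplicate plates.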
# [1] = compound: C1=CC2=NC=CN=C2C=C1/C=C/3\C(=O)NC(=O)S3 + CC(=O)c1c(C)c2cnc(Nc3ccc(N4CCNCC4)cn3)nc2n(C2CCCC2)c1=O [Palbociclib] (partner 0.5 µM)
# How it was run: as §1
# BGJ398 + Decitabine = compound: CCN1CCN(c2ccc(Nc3cc(N(C)C(=O)Nc4c(Cl)c(OC)cc(OC)c4Cl)ncn3)cc2)CC1 [BGJ398] + Nc1ncn([C@H]2C[C@H](O)[C@@H](CO)O2)c(=O)n1 [Decitabine] (partner 2 µM)
# How it was run: as §1
# [2] = compound: C1=CC2=NC=CN=C2C=C1/C=C/3\C(=O)NC(=O)S3 + Nc1nc2[nH]cc(CCc3ccc(C(=O)N[C@@H](CCC(=O)O)C(=O)O)cc3)c2c(=O)[nH]1 [Pemetrexed] (partner 0.2 µM)
# How it was run: as §1
Cell Line,relative viability (BGJ398 + Alpelisib; first compound 0.01 µM),relative viability (BGJ398 + Alpelisib; first compound 0.03162 µM),relative viability (BGJ398 + Alpelisib; first compound 0.1 µM),relative viability (BGJ398 + Alpelisib; first compound 0.3162 µM),relative viability (BGJ398 + Alpelisib; first compound 1 µM),relative viability ([1]; first compound 0.02 µM),relative viability ([1]; first compound 0.06325 µM),relative viability ([1]; first compound 0.2 µM),relative viability ([1]; first compound 0.6325 µM),relative viability ([1]; first compound 2 µM),relative viability (BGJ398 + Decitabine; first compound 0.01 µM),relative viability (BGJ398 + Decitabine; first compound 0.03162 µM),relative viability (BGJ398 + Decitabine; first compound 0.1 µM),relative viability (BGJ398 + Decitabine; first compound 0.3162 µM),relative viability (BGJ398 + Decitabine; first compound 1 µM),relative viability ([2]; first compound 0.02 µM),relative viability ([2]; first compound 0.06325 µM),relative viability ([2]; first compound 0.2 µM),relative viability ([2]; first compound 0.6325 µM),relative viability ([2]; first compound 2 µM)
LK-2,0.813,0.936,0.557,0.381,0.311,0.593,0.767,0.619,0.665,0.24,0.234,0.262,0.222,0.157,0.137,0.198,0.326,0.276,0.267,0.148
HCC-366,0.417,0.478,0.676,0.404,0.348,0.355,,0.357,0.366,0.374,0.336,0.371,0.355,0.306,0.347,0.117,,0.163,0.164,0.21
BEN,0.896,1.2,0.993,0.923,0.759,0.491,0.422,0.492,0.475,0.448,0.604,0.688,0.796,0.681,0.591,0.824,0.813,0.773,0.836,0.644
NCI-H23,0.746,0.652,0.666,0.625,0.574,0.513,0.547,0.577,0.509,0.349,0.303,0.375,0.279,0.271,0.325,0.605,0.79,0.636,0.6,0.578
NCI-H1395,0.982,1.02,0.994,0.719,0.604,0.621,0.58,0.642,0.622,0.594,0.684,0.692,0.609,0.648,0.649,0.965,0.779,0.975,0.867,0.732
201T,1.08,1.01,0.893,0.964,0.994,0.341,0.347,0.349,0.358,0.343,0.958,0.814,0.835,0.797,0.807,0.316,0.346,0.363,0.348,0.312
NCI-H2170,0.815,0.756,0.938,0.734,0.853,0.35,0.448,0.405,0.374,0.374,0.434,0.453,0.466,0.456,0.499,0.29,0.268,0.287,0.278,0.263
NCI-H460,0.47,0.594,0.574,0.566,0.422,0.168,0.107,0.176,0.2,0.122,0.418,0.515,0.592,0.53,0.438,0.0621,0.0629,0.071,0.058,0.0661
NCI-H661,0.594,1.08,0.715,0.526,0.614,0.397,0.453,0.402,0.434,0.436,0.51,0.491,0.61,0.55,0.529,0.94,1,0.982,0.845,0.905
HCC-15,0.88,0.909,0.976,0.91,1.02,0.708,0.715,0.71,0.725,0.657,0.571,0.6,0.78,0.73,0.618,0.231,0.217,0.234,0.231,0.218
LCLC-103H,1.03,0.954,0.991,0.975,0.778,0.482,0.457,0.475,0.431,0.485,0.714,0.631,0.67,0.628,0.566,0.464,0.438,0.473,0.448,0.447
NCI-H441,0.775,0.707,0.644,0.73,0.593,0.195,0.271,0.24,0.193,0.112,,0.26,0.275,0.273,0.224,0.25,0.276,0.307,0.229,0.253
EPLC-272H,0.895,0.812,0.846,0.752,0.952,0.327,0.25,0.349,0.344,0.292,0.391,0.3,0.38,0.303,0.323,0.351,0.266,0.43,0.353,0.318
